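96-well plates; 48 h exposure; 5 concentrations. Endpoints by linear interpolation between flanking doses. Not reached: highest tested concentration assigned. GI50: concentration for 50% inhibition of growth. Definition used: TGI = concentration required for complete inhibition of growth.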
Columns and labels:
Experiment in all cases: inhibition of tumour cell growth, NCI panel, 48 h
[1] = test system: OVCAR-4 ovarian
[2] = test system: HOP-62 NSCLC
[3] = test system: 786-0 renal
[4] = test system: MDA-MB-231 breast
[5] = test system: SK-MEL-2 melanoma
[6] = test system: RXF 393 renal
[7] = test system: K-562 leukemia
[8] = test system: ACHN renal
[9] = test system: IGROV1 ovarian
[10] = test system: SR leukemia

Row | SMILES | GI50 [1] [µM] | TGI [1] [µM] | GI50 [2] [µM] | TGI [2] [µM] | GI50 [3] [µM] | TGI [3] [µM] | GI50 [4] [µM] | TGI [4] [µM] | GI50 [5] [µM] | TGI [5] [µM] | GI50 [6] [µM] | TGI [6] [µM] | GI50 [7] [µM] | TGI [7] [µM] | GI50 [8] [µM] | TGI [8] [µM] | GI50 [9] [µM] | TGI [9] [µM] | GI50 [10] [µM] | TGI [10] [µM]
1 | CCC[C@H](N[C@@H]1CCc2cc(F)cc(F)c2C1)C(=O)Nc1cn(C(C)(C)CNCC(C)(C)C)cn1 | 23.5 | > 100 | 20.8 | 75.1 | 13.5 | 54.2 | 10.2 | 29.3 | 16.1 | 35.4 | 6.12 | 21.1 | 8.33 | > 89.2 | 22.7 | > 96.7 | 28.6 | > 100 | 14.2 | > 79
2 | CO[C@@H]1[C@@H](OC2OC(C)C(OC3CC(C)(O)C(OC(=O)CC(C)C)C(C)O3)C(N(C)C)C2O)[C@@H](CC=O)C[C@@H](C)C(=O)/C=C/C2O[C@H]2C[C@@H](C)OC(=O)C[C@H]1OC(C)=O (stereo not given in full) |  | 86.7 |  | 37.8 |  | 50.2 |  | 45.6 |  | 43.7 |  | 64.7 |  | 39.8 |  | 46.8 |  | 61 |  | 42.4
3 | O=C1c2ccccc2C(=O)N1c1ccc(S(=O)(=O)Nc2ncccn2)cc1 | > 100 | > 100 | > 100 | > 100 | > 100 | > 100 | > 100 | > 100 | > 100 | > 100 | > 100 | > 100 | > 100 | > 100 | > 100 | > 100 | > 100 | > 100 | > 100 | > 100
4 | C(=C1c2ccccc2-c2ccccc21)c1ccccn1 | 15.3 | > 100 | 6.61 | 60.8 | 14.7 | 29.8 | 12.3 | 39.8 | 12.7 | 43 | 7.58 | 24.1 | 3.93 | > 100 | 26.6 | > 100 | 4.89 | 35.9 | 3.76 | 38.3
5 | COc1ccc2c(c1)c(C1(c3cn(C)c4ccc(OC)cc34)C(=O)Nc3ccc(F)cc31)cn2C | 3.92 | > 100 | 7.62 | > 100 | 6.51 | > 100 | 2.89 | 18.6 | 3.62 | 9.64 | 3.74 | 16.2 | 4.61 | > 100 | 4.63 | > 100 | 4.26 | > 100 | 5.59 | 82
6 | COCCOC(=O)C1=C(C)NC2=C(C(=O)CC(c3ccccc3OC)C2)C1c1cccc(O)c1 (stereo not given) | 8.98 | > 80.5 | 5.84 | 44.3 | 12.2 | 51.6 | 13 | > 72.8 | 10.1 | 26.7 | 14.1 | 36.4 | 7.97 | > 85.4 | 19.1 | 71.2 | 9.54 | 52.4 | 8.76 | > 59.6
7 | CCC(Sc1nnc2c3ccccc3n(CC)c2n1)C(=O)Nc1ccccc1OC (stereo not given) | > 75.7 | > 100 | 3.99 | > 71.9 | > 100 | > 100 | 52.5 | > 100 | > 100 | > 100 | 64 | > 100 | > 100 | > 100 | 83.8 | > 100 | > 93.8 | > 100 | > 100 | > 100
8 | O=C1C=C(Nc2ccccc2C(=O)CC(=O)C(=O)Nc2cccc(C(F)(F)F)c2)c2ccccc2C1=O |  | > 87.4 |  | > 72.7 |  | > 97.2 |  | > 91.1 |  | 44.5 |  | 93.3 |  | > 94.9 |  | > 100 |  | > 100 |  | > 94.7
9 | O=C1OC(c2ccc(O)c(-c3ccccc3)c2)(c2ccc(O)c(-c3ccccc3)c2)c2c(Cl)c(Cl)c(Cl)c(Cl)c21 |  | > 100 |  | > 100 |  | > 100 |  | > 100 |  | > 100 |  | > 100 |  | > 100 |  | > 100 |  | > 100 |  | > 100
10 | COc1cccc(/C=N\Nc2ccc([N+](=O)[O-])cn2)c1O | 4.28 | > 100 | 3.89 | 25.5 | 3.53 | 28.9 | 3.95 | 96.2 | 9.69 | 54.4 | 2.79 | 12.7 | 3.12 | > 100 | 2.33 | 7.61 | 1.91 | 13.5 | 3.03 | > 100
11 | CCCCCCCCCCCCCCCc1cc(O)ccc1N | 1.23 | 3.77 | > 100 | > 100 | 2.77 | 37.2 | > 31.1 | > 100 | > 100 | > 100 | 18.5 | > 84.6 | 10.7 | > 38 | > 100 | > 100 | 0.416 | 6.61 | 2.18 | 23.4
12 | O=S1(=O)CCN(Cc2ccccn2)CC1 |  | > 100 |  | > 100 |  | > 100 |  | > 100 |  | > 100 |  | > 100 |  | > 100 |  | > 100 |  | > 100 |  | > 100
13 | CCCCC(=O)N/N=C/c1cc(I)cc(I)c1O | 0.918 | 12.7 | 3.67 | 19.8 | 3.39 | 20.6 | 2.73 | 29.9 | 3.22 | 14.4 | 5.39 | 27.2 | 2.99 | 15.9 | 2.4 | 13.4 | 2.32 | 17.2 | 1.92 | 14.3
14 | O=[N+]([O-])c1ccccc1N=Nc1c(O)[nH]c2ccccc12 |  | > 61.1 |  | > 48 |  | 36.1 |  | > 47.3 |  | > 100 |  | > 74.9 |  | > 100 |  | 23.7 |  | > 39.9 |  | > 100
15 | O=C(O)C1C2CC3C(OC(=O)C31)C2Br (stereo not given) |  | > 100 |  | > 100 |  | > 100 |  | > 100 |  | > 100 |  | > 100 |  | > 88.9 |  | > 100 |  | > 100 |  | 26.2
16 | CCN(CC)c1ccc2c(c1)Oc1nc(N)c(C#N)c(N)c1C2Sc1ccc(SC)cc1 (stereo not given) | 1.75 | 3.4 | 1.76 | 3.26 | 1.75 | 3.19 | 1.54 | 3.07 | 2.48 | 5.51 | 1.66 | 3.31 | 2.33 | 5.69 | 1.68 | 3.04 | 1.57 | 3.37 | 0.436 | 3.87
17 | Nc1cc(-c2ccccc2)ccc1O | 36.5 | > 100 | > 100 | > 100 | > 100 | > 100 | 7.32 | > 100 | > 100 | > 100 | > 100 | > 100 | > 100 | > 100 | 54.6 | > 100 | > 100 | > 100 | 33.9 | > 100
